Measured values: US20060249167A1, “Flavor ingredients for cooling preparations” (priority 2003, published 2006)

How the values were obtained:
[1] = Organoleptic (odor and flavor) description of the compound and its isomers; details: in vivo

| SMILES | flavor [1] | odor [1] | flavor ([1]; listed as (3S,5R,6S,9R) isomer) | melting point |
| --- | --- | --- | --- | --- |
| CC1CCC(C(C)C)C2(C1)OC(=O)C(C)O2 (stereo not shown) [Compound (I), 6-isopropyl-3,9-dimethyl-1,4-dioxaspiro[4.5]decan-2-one] | minty, fresh, piperita type | minty, menthone type odor | – | – |
| CC(C)[C@@H]1CC[C@@H](C)CC12OC(=O)[C@H](C)O2 (stereo partly drawn) [Compound of example 1a, (3S, 6S, 9R)-6-isopropyl-3,9-dimethyl-1,4-dioxaspiro[4.5]decan-2-one] | interesting minty note with refreshing effect | – | – | – |
| CC(C)[C@@H]1CC[C@@H](C)C[C@@]12OC(=O)[C@H](C)O2 [Compound of example 1b, (3S, 5R, 6S, 9R)-6-isopropyl-3,9-dimethyl-1,4-dioxaspiro[4.5]decan-2-one] | more of the cooling type with a minty connotation | – | stronger and more lingering effect | – |
| CC(C)[C@@H]1CC[C@@H](C)C[C@]12OC(=O)[C@H](C)O2 [Compound of example 1c, (3S, 5S, 6S, 9R)-6-isopropyl-3,9-dimethyl-1,4-dioxaspiro[4.5]decan-2-one] | more of the cooling type with a minty connotation | – | – | 33 to 34 °C |
